Experiment: Pulp bleaching, delignification measured as Kappa number (TAPPI T236 cm-85)
Settings: for Kappa No.: 2 g pulp, starting Kappa 31
Description: Delignification of the pulp was measured as the change in Kappa number according to the TAPPI method T236 cm-85. A typical procedure is as follows. A known mass of paper pulp (containing lignin) is reacted with an excess of potassium permanganate in an acid solution for a specified period of time to oxidize the lignin. After the reaction, the residual permanganate is determined by titration. The Kappa number is defined as the volume (ml) of 0.1N potassium permanganate consumed by 1 g of moisture-free pulp in 0.5N sulfuric acid after a ten-minute reaction time at 25° C. under conditions such that one-half of the permanganate remains unreacted. A linear relationship with the lignin content of the pulp and the measurement of the Kappa number has already been done on samples as low as 300 mg of pulp.
A softwood Kraft pulp, Kappa number 31.0, was treated with a laccase (NS51003) under the following conditions:
The dried pulp was added to 80 ml of 50 mM phosphate, pH 5.5, and disintegrated in a blender. The pulp was then transferred to a 500 ml conical flask and the blender was washed with 20 ml of the same buffer. The washed buffer and the pulp were combined. The mediator was added at 1-4% (w/w, based on the dry pulp), followed by the addition of the laccase. The pH of the pulp mixture was adjusted to 5.5 if needed. The flask was covered with an aluminum foil with holes punched through and incubated at 50° C. for 16 hrs on a rotary shaker at 200 rpm.
After the enzymatic treatment, the pulp mixture was filtered through a Buchner funnel, and the pulp was washed with water. The pulp from the control experiment was treated at the same pH and temperature as described above.
The washed pulp was then treated with an alkaline solution under the following conditions:
The filtered pulp was repulped in the alkaline solution and incubated at 70° C. for 3 hrs. The pH of the pulp mixture should be between 11.7-12.00 during the entire treatment. After the treatment, the pulp mixture was filtered through a Buchner funnel, and the pulp was washed with water extensively and then dried in a hood overnight.
The delignification of the pulp was measured as a change in Kappa Number according to TAPPI method T236 cm-85.
In this example, we used the typical pulp bleaching experiment as described above. We also used laccase as the enzyme, hardwood black liquor (HWBL) as the mediator, and two chain transfer agents (anthracene and CBr4).

[1] = laccase 100 ul plus HWBL 200 ul as mediator plus chain transfer agent 20 mg

Compound	Kappa No. [1]	Kappa number reduction (in words) (0.1 ml of the 51003 laccase with the mediator)	Kappa No. (laccase 100 ul plus mediator (HBT 20 mg or HWBL 200 ul), no chain transfer agent)
c1ccc2cc3ccccc3cc2c1 [anthracene]	25.4		
BrC(Br)(Br)Br [CBr4, carbon tetrabromide]	24.4		
On1nnc2ccccc21 [HBT, 1-hydroxybenzotriazole]		modest Kappa number reduction	26.1
